From ChEMBL document CHEMBL1201862, “PubChem BioAssay data set” (2004)
Activity calls are given as the source filed them.

Experiments:
[1] = biological target: T1, Tyrosine-protein phosphatase non-receptor type 22 (Homo sapiens, UniProt Q9Y2R2); assay: SAR LYP1 Fluorescent Assay using OMFP substrate for In Vitro dose response studies - Set 3. [Related pubchem assays (depositor defined):AID1779, AID1784, AID2140, AID2686]; type: functional
T1 sequence (Q9Y2R2 whole entry): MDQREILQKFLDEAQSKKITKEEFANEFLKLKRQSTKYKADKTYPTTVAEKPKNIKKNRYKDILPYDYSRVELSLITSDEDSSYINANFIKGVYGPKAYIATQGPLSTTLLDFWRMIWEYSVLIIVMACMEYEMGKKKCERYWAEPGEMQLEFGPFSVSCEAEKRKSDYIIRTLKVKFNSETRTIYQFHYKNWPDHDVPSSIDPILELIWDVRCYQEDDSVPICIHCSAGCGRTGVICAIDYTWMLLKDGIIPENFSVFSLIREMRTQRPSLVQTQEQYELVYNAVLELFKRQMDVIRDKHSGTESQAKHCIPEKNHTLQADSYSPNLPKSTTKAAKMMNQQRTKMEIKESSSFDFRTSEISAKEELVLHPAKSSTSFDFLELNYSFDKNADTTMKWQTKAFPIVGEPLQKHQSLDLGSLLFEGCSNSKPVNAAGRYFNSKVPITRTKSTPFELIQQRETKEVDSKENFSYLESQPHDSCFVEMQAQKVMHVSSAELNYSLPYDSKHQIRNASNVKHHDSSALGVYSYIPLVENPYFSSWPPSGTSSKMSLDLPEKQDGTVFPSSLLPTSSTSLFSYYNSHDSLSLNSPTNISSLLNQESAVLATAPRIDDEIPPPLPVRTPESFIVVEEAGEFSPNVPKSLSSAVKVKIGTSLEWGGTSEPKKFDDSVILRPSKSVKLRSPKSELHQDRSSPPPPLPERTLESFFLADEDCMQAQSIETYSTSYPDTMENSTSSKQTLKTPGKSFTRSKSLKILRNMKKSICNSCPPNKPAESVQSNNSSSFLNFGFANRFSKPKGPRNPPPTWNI

[2] = biological target: T2, Tyrosine-protein phosphatase non-receptor type 12 (Homo sapiens, UniProt Q05209); assay: SAR Selectivity Analysis of small molecule inhibitors of PEST using pCAP in a fluorescence assay. [Related pubchem assays (depositor defined):AID1779, AID1784, AID2135]; type: functional
T2 sequence (Q05209 whole entry): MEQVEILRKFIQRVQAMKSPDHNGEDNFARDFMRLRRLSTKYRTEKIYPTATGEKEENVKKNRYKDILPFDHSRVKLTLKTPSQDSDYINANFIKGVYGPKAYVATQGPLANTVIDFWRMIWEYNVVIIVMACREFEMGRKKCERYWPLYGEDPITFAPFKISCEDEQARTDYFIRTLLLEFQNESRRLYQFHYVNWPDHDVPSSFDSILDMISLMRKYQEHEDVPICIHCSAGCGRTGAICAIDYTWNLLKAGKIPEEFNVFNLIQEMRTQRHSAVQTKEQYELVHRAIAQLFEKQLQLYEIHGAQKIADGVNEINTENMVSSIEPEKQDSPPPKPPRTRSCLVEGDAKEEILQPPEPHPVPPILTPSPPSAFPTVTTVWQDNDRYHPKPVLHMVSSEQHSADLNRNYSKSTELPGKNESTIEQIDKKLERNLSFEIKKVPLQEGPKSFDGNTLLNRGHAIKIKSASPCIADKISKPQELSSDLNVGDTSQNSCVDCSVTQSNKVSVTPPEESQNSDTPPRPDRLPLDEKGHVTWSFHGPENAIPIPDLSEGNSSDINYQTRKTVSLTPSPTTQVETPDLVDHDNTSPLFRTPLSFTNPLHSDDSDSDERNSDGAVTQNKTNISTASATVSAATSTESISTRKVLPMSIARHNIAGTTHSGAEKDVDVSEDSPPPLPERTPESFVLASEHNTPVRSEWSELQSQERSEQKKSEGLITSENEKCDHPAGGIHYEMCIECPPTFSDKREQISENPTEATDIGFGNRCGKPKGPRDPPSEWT

[3] = biological target: T1, Tyrosine-protein phosphatase non-receptor type 22; assay: inhibition of lymphoid tyrosine phosphatase LYP – biochemical, pCAP fluorogenic substrate, fluorescence, set 3, SAR follow-up (AID 449727); type: functional
[4] = biological target: Glyceraldehyde-3-phosphate dehydrogenase (Homo sapiens, UniProt P04406)
[5] = biological target: G-protein coupled receptor 55 (Homo sapiens, UniProt Q9Y2T6); assay: inhibition of LPI-stimulated GPR55 beta-arrestin translocation – imaging, U2OS, beta-arrestin-GFP, LPI agonist, primary screen (AID 2013); type: functional;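 further: antagonist potency measured as reduced agonist-driven arrestin aggregation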
[6] = biological target: Peroxisome proliferator-activated receptor gamma/Nuclear receptor coactivator 1 (Homo sapiens, UniProt P37231); type: functional;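 further: agonist potency as compounds enhance coactivator SRC-1 recruitment to PPARgamma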
[7] = biological target: Peroxisome proliferator-activated receptor gamma/Nuclear receptor coactivator 3 (Homo sapiens, UniProt P37231); type: functional;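 further: agonist potency for raising coactivator recruitment to the receptor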
[8] = biological target: Peroxisome proliferator-activated receptor gamma/Nuclear receptor coactivator 2 (Homo sapiens, UniProt P37231); type: functional;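 further: agonist potency for raising coactivator recruitment to the receptor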
[9] = viability loss of HPDE-C7K cells – cell-based, fluorescence, HTS, primary screen (AID 431); type: functional; conditions: Homo sapiens
[10] = HPDE-C7 pancreatic duct cell viability loss – fluorescence, HTS (AID 430); type: functional, cell-based; conditions: Homo sapiens
[11] = biological target: T3, Heat shock factor protein 1 (Mus musculus, UniProt P38532); assay: decrease of HSF1-responsive luciferase luminescence – cell-based, NIH3T3, dose retest, confirmation (AID 2382); type: functional;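 further: NIH3T3 fibroblasts with HSF1-driven luciferase reporter stressed by proteasome inhibitor MG132; luminescence from HSF1-driven luciferase expression after 8 hours of MG132 stress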
T3 sequence (P38532 whole entry): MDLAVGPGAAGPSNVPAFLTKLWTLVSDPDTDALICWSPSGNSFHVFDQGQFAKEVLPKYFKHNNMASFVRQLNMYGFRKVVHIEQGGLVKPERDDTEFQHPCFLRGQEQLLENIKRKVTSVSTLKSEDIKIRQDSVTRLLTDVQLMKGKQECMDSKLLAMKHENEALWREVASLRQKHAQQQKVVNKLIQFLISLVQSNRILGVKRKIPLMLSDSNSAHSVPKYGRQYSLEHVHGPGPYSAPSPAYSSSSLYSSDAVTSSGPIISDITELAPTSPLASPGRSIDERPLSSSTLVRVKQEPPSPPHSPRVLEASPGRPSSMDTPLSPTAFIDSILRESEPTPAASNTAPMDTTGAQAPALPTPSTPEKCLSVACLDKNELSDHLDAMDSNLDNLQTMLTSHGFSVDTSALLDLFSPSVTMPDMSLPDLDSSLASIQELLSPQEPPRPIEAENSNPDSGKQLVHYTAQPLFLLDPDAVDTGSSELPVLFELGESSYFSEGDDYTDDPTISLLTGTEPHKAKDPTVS

Streptococcus = assay: GAS UMAA2166 growth inhibition – luminescence, BacTiterGlo, counter-screen for streptokinase expression inhibitor project, dose response (AID 1915); type: functional, organism-based;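 further: potency for reduction of bacterial viability or growth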
[12] = viability of uninfected HEp-2 cells – cell-based, HTS, cytotoxicity control for RSV inhibitor project, dose response (AID 2410); type: functional; conditions: human respiratory syncytial virus
[13] = system: Streptococcus sp. 'group A'; assay: Streptococcus pyogenes SK(-)GAS viability under kanamycin – luminescence, BacTiterGlo, confirmation, counter-screen for streptokinase expression inhibitor project, dose response (AID 1900); type: functional, organism-based
Streptokinase A = biological target: T4, Streptokinase A (Streptococcus pyogenes serotype M1, UniProt P10520); assay: viability-normalized secreted streptokinase activity reduction – plasminogen activation absorbance, OD405, dose response (AID 1914); type: functional, Streptococcus pyogenes M1 GAS;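 further: secreted streptokinase activity via plasminogen activation per viability signal from cell pellet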
T4 sequence (P10520 whole entry): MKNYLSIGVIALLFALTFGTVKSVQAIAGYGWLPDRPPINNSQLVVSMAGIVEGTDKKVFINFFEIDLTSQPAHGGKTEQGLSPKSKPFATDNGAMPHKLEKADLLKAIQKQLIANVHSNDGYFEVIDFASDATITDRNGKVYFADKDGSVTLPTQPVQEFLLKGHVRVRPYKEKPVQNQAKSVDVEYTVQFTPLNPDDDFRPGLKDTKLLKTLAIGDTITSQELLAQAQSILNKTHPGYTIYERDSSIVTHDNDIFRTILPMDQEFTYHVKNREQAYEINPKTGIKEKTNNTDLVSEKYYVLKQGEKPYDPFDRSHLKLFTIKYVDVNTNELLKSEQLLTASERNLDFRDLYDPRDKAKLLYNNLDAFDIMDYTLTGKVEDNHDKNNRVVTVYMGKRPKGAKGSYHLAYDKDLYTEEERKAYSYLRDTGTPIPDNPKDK

[14] = Luminescence Cell-Based Dose Response HTS to Identify Activators of Luciferase Translation or Activity in H4 […] Cells. [Related pubchem assays: 1829 (Project Summary), 1814 (Primary HTS)]; type: functional
H4 = assay: Luminescence Cell-Based Dose Response HTS to Identify Activators of 5'UTR Stem-Loop Driven Prion Protein mRNA Translation in H4 Neuroglioblastoma Cells. [Related pubchem assays: 1829 (Project Summary), 1814 (Primary HTS)]; type: functional; conditions: Homo sapiens
ORF 73 = biological target: T5, ORF 73 (Human herpesvirus 8, UniProt O40947); assay: KSHV LANA DNA-binding disruption – biochemical, fluorescence polarization, cherry-picked samples, dose response (AID 504725); set-up: species or system Human gammaherpesvirus 8;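 further: fluorescence polarization of a labeled DNA duplex reporting LANA DNA binding; potency is for inhibitors that block LANA binding to the DNA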
T5 sequence (O40947 whole entry): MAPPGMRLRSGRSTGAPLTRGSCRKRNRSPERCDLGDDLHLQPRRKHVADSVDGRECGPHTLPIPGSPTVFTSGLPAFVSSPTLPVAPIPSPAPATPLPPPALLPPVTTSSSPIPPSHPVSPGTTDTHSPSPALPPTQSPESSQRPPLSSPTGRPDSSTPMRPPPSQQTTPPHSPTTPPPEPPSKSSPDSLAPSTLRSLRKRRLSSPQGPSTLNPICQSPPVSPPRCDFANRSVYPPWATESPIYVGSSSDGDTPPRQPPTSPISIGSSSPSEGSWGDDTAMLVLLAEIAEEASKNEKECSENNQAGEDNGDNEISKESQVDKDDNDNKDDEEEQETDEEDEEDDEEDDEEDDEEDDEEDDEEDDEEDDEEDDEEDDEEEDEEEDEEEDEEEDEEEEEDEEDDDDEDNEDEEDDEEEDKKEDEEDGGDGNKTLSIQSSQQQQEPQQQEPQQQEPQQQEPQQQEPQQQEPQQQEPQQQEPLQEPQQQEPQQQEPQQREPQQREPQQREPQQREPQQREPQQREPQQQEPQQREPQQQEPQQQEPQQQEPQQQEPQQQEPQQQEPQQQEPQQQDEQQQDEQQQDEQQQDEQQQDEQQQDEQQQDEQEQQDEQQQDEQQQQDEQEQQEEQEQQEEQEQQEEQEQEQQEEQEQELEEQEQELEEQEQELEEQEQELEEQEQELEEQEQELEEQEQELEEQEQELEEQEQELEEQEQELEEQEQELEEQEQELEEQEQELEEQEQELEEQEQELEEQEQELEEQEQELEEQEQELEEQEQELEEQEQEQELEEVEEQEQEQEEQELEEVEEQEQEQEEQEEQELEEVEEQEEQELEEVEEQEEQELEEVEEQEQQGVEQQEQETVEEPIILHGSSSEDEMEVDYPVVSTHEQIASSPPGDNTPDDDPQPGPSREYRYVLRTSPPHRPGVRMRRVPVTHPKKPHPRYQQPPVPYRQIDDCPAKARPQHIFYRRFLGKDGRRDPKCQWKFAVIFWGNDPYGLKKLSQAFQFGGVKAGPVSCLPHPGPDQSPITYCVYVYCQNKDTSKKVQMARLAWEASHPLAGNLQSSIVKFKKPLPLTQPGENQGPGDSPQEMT

Peroxisome proliferator-activated receptor gamma/Nuclear receptor coactivator 2, sequence (P37231 whole entry): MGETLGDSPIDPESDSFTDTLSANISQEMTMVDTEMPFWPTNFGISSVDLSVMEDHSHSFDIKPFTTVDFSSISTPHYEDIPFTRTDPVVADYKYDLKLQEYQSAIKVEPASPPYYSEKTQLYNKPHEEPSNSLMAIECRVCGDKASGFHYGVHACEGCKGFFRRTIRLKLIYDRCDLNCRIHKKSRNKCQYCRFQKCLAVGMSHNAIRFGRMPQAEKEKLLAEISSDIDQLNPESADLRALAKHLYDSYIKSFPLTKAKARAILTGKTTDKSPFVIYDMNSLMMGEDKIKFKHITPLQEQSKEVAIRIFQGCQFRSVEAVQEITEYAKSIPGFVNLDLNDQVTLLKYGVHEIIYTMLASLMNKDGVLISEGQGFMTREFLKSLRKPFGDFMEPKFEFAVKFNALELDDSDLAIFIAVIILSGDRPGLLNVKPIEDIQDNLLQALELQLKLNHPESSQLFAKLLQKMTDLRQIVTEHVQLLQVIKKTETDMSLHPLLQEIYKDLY
Peroxisome proliferator-activated receptor gamma/Nuclear receptor coactivator 2, sequence (Q15596 whole entry, further chain): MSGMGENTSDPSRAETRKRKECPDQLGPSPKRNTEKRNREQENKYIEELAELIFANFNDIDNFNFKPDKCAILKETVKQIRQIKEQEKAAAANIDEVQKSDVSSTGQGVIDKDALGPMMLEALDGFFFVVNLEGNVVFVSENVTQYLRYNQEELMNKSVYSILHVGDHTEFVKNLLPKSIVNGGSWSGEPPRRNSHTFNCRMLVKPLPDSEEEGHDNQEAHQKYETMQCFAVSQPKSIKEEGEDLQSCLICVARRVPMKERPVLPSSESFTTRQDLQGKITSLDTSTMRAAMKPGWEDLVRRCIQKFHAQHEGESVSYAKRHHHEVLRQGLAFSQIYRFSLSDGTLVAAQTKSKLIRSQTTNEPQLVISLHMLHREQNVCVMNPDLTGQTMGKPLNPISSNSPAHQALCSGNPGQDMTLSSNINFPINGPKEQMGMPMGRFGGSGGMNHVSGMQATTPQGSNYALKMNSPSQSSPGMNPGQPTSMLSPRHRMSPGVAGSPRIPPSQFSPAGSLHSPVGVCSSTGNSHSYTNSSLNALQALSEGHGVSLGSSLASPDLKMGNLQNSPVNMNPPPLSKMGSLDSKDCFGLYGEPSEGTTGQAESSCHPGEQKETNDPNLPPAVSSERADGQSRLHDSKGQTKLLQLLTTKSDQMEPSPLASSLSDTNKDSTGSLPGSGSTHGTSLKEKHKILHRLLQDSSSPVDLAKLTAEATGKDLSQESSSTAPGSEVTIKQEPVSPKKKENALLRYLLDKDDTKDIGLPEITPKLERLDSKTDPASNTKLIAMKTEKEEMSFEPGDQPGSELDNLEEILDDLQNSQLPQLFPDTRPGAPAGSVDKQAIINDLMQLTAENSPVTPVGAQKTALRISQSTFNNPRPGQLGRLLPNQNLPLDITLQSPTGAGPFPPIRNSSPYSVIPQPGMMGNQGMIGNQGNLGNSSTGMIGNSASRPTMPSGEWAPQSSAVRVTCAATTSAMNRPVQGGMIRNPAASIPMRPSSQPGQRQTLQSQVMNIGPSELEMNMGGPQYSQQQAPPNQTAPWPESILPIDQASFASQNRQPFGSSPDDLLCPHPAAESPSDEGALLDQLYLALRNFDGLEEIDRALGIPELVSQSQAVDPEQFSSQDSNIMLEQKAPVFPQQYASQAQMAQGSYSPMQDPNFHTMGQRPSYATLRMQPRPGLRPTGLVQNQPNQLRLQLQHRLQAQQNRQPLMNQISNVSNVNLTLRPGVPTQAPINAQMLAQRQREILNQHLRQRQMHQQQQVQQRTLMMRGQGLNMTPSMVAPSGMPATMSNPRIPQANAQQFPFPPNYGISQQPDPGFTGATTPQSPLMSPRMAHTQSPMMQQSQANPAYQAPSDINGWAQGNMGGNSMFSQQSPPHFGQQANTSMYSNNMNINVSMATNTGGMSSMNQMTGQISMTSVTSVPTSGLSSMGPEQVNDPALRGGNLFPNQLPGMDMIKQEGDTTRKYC
Peroxisome proliferator-activated receptor gamma/Nuclear receptor coactivator 3, sequence (P37231 whole entry): as the sequence (P37231 whole entry) above
Peroxisome proliferator-activated receptor gamma/Nuclear receptor coactivator 3, sequence (Q9Y6Q9 whole entry, further chain): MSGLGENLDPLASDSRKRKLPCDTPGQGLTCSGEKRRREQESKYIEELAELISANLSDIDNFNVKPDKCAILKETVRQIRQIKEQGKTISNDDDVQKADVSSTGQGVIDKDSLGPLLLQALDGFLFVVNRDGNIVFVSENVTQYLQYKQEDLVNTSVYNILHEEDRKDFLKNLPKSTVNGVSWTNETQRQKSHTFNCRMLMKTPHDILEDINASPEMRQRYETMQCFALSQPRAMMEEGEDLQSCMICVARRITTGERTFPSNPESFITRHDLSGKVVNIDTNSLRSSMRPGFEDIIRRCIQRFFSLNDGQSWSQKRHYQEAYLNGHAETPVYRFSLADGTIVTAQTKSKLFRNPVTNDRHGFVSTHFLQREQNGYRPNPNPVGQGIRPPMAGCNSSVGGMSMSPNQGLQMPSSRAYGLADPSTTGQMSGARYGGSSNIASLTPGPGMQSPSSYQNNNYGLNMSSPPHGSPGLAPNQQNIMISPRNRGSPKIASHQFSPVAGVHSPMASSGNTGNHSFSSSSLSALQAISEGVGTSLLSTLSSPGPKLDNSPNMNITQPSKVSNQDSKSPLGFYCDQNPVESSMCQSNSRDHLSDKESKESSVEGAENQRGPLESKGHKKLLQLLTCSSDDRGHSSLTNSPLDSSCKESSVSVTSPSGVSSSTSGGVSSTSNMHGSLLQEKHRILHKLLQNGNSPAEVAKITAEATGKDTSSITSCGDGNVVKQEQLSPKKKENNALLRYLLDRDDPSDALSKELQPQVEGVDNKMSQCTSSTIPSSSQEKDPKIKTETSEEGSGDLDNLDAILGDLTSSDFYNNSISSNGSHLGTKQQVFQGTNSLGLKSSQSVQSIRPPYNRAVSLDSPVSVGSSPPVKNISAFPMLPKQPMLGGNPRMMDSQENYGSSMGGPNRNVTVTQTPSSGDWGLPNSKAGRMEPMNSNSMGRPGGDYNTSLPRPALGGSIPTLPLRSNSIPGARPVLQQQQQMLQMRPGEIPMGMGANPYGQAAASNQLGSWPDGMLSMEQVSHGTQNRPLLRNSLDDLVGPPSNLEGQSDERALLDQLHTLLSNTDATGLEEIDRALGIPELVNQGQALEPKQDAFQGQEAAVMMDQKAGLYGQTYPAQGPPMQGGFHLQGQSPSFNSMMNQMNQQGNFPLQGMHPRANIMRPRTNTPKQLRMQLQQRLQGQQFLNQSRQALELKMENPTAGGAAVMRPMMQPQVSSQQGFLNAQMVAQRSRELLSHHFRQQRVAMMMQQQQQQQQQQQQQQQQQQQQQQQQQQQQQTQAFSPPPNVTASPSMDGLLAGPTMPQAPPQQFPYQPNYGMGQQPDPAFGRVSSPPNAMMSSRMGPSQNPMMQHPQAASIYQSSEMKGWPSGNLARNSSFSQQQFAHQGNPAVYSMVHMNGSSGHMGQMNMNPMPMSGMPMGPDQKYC
G-protein coupled receptor 55, sequence (Q9Y2T6 whole entry): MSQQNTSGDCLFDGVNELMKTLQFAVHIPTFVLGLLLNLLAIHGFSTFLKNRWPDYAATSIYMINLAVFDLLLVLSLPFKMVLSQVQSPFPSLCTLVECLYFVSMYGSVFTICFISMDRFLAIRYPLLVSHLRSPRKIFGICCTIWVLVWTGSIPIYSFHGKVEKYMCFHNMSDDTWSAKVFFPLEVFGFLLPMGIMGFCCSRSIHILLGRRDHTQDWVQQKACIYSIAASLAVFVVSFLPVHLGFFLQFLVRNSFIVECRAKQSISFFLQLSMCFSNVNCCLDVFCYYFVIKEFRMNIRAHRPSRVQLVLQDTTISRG
Glyceraldehyde-3-phosphate dehydrogenase, sequence (P04406 whole entry): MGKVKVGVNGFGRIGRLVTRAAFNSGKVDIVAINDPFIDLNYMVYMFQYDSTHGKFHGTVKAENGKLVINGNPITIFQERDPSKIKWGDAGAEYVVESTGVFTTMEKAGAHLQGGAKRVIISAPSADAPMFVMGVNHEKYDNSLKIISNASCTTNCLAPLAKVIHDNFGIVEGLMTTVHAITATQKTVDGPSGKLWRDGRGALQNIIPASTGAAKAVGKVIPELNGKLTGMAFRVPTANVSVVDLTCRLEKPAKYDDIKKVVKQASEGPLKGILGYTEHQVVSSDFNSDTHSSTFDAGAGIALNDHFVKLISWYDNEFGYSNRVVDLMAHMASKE

O=C(O)CN1C(=O)/C(=C\c2ccc(C(=O)O)cc2)SC1=S
IC50 [1]: > 100 µM (inactive) | IC50 [2]: 24.5 µM (active) | IC50 [3]: 88.9 µM (active) | IC50 [4]: > 100 µM (not active)

Clc1ccc(-c2noc(CSc3nnc(Cc4cccs4)n3-c3ccccc3)n2)cc1
IC50 [5]: 2.67 µM (active)

O=C(O)CN1C(=O)/C(=C\c2cccc([N+](=O)[O-])c2)SC1=S
IC50 [1]: > 100 µM (inactive) | IC50 [2]: > 100 µM (inactive) | IC50 [3]: > 100 µM (inactive) | IC50 [4]: > 100 µM (not active)

COc1ccccc1N(CC(=O)NCC1CCCO1)C(=O)CCC(=O)Nc1nccs1 (stereo not drawn)
EC50 [6]: > 79.4 µM (not active) | EC50 [7]: > 79.4 µM (not active) | EC50 [8]: > 79.4 µM (not active)

Cc1cc(C)c2c(n1)nn1c(N3CCN(c4ccccc4)CC3)cc(C)nc21
EC50 [9]: > 20 µM (not active) | EC50 [10]: > 20 µM (not active)

COc1ccc(C(=O)CSc2nnc(-c3ccc(S(=O)(=O)N4CCOCC4)cc3)o2)cc1
EC50 [6]: 40.5 µM (not active) | EC50 [7]: 53.5 µM (not active) | EC50 [8]: 26.1 µM (not active)

CCOC(=O)c1c(NC(=O)Cc2cccs2)sc(C(=O)NC2CCCC2)c1C
EC50 [6]: > 79.4 µM (not active) | EC50 [7]: > 79.4 µM (not active) | EC50 [8]: > 79.4 µM (not active)

CCOC(=O)N1CCN(S(=O)(=O)c2cc(Br)cc3c2N(C(C)=O)C(C)C3)CC1 (stereo not drawn)
EC50 [9]: > 20 µM (not active) | EC50 [10]: > 20 µM (not active)

Cc1ccc(-n2ncc3c(NCc4ccc5c(c4)OCO5)ncnc32)c(C)c1
EC50 [11]: > 195 µM (not active) | EC50 [9]: > 20 µM (not active) | EC50 [10]: > 20 µM (not active)

N=C1S/C(=C\c2cn[nH]c2-c2ccc(F)cc2)C(=O)N1c1ccccc1F
EC50 (Streptococcus): 38.9 µM (active) | IC50 [5]: < 0.5 µM (active) | CC50 [12]: 20.2 µM (active) | EC50 [13]: 4.49 µM (active) | EC50 (Streptokinase A): > 150 µM (not active) | EC50 [14]: 8.92 µM (active) | EC50 (H4): > 120 µM (not active)

CC(Oc1ccccc1)c1nnc(N)s1 (stereo not drawn)
AC50 (ORF 73): 53 µM (active)
